The values that follow come from patent US10632106B2, “Methods of cancer treatment with 2-(1′H-Indole-3′-carbonyl)-thiazole-4-carboxylic acid methyl ester” (Ariagen, Inc., priority 2009, dated 2020).

Structures are written as SMILES.

The series concerns A375 (human skin cancer) xenografts. The series is described as follows: A375 xenograft growth inhibition. In kind it is in vivo. To be noted: ITE 100-200 mg/kg i.p. once daily. Here is the method: All the procedures related to animal handling, care, and the treatment in the study were performed following guidelines of KeyGen Biotechn Co., Ltd. (Nanjing, China), a contract research organization we hired, based on the guidance of the Association for Assessment and Accreditation of Laboratory Animal Care (AAALAC). Animals were checked for any effects of tumor growth and drug treatment on normal behavior such as mobility, food and water consumption, body weight gain/loss (bodyweights were measured every two days), eye/hair matting, and any other abnormal effect. Death and observed clinical signs were recorded. Individual animals with a tumor volume exceeding 3,000 mm^3 or animals of a group with a mean tumor volume exceeding 2,000 mm^3 were euthanized. In addition, animals showing signs of severe distress and/or pain or losing the capability of accessing adequate food or water were humanely sacrificed.
Cell lines HCT116, Siha, MFC were cultured in DMEM medium (high glucose) supplemented with 10% fetal bovine serum (FBS), SW116 and T24 in RPMI-1640 medium with 10% FBS, M14 and A375 in DMEM medium (high glucose) with 10% calf serum (CS), SGC7901 and Ketr-3 in RPMI-1640 medium with 10% CS, and CFPAC-1 in IMDM medium with 10% FBS. All of the cells were cultured, in the presence of 100 U/ml penicillin and 100 μg/ml streptomycin, at 37° C. in an atmosphere of 5% CO2 in air. […] The cells growing in an exponential phase were harvested and counted for tumor inoculation. Cell lines 5180 and U14 were maintained in ascites (peritoneal cavity fluid) of mice and were harvested and counted for tumor inoculation. […]
Tumor volume was measured every two days in two dimensions using a caliper and the volume was calculated with a formula of: V=0.5 a×b^2, where a and b are the long and short diameter (in mm) of a tumor, respectively. […] The TGD was calculated as: TGD=T−C, where T was the time (in days) required for tumors in a drug treated group to reach a predetermined mean tumor volume and C the time (in days) in the control group to reach the same volume. […]

`COC(=O)c1csc(C(=O)c2c[nH]c3ccccc23)n1` [ITE, 2-(1′H-indole-3′-carbonyl)-thiazole-4-carboxylic acid methyl ester] came in with a TGD (TGD at Vol. 1,000) of 7 days. In addition, where the note is “TGI at day 16, TGI=(1−ΔT/ΔC)×100%”, the “TGI (%)” value is on record as 60%. Further, the “Weight Loss” value (end of therapy relative to beginning) worked out at 18%.
